Literature values in patent US20140243418A1, “RASAGILINE FOR PARKINSON'S DISEASE MODIFICATION” (Teva Pharmaceutical Industries, Ltd., priority 2008, published 2014).

How the values were obtained:
Parkinson's disease [1] = settings: three doses tested; time to need for levodopa as primary endpoint; cited from earlier work
[2] = target: T1, Type-B Monoamine Oxidase (MAO-B) (Homo sapiens, UniProt P27338); settings: cited from earlier work
T1 sequence (P27338 1-520): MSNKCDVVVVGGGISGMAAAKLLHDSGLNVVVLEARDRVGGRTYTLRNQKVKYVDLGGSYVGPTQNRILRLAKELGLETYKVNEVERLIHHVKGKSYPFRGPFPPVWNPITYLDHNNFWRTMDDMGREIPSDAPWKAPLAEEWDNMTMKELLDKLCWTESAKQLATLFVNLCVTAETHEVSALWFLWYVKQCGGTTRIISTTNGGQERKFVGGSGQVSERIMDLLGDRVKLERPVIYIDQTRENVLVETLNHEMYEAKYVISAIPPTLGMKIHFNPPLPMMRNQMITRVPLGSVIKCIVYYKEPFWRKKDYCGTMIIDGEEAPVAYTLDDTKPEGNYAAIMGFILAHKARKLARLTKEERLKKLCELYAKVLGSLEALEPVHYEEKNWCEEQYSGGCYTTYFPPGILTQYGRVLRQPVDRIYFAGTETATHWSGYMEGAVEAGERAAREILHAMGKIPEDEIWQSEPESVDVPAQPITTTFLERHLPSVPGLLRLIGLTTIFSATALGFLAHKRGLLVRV

Parkinson's disease [3] = settings: 12 months of treatment and 2 months of drug wash-out; vs placebo; cited from earlier work

Row | SMILES | effect on primary or secondary endpoints (Parkinson's disease [1]) | inhibition of Type-B Monoamine Oxidase (MAO-B) [2] | deterioration from baseline in UPDRS motor score (Parkinson's disease [3])
1 | C#CCN(C)CC1=Cc2ccccc2Oc2ccccc21.O=C(O)/C=C\C(=O)O [TCH346] | did not demonstrate a positive effect | did not inhibit | –
2 | C#CCN(C)[C@H](C)Cc1ccccc1 [selegiline] | – | – | less deterioration from baseline than patients treated with placebo
